Consider two compounds from ChEMBL document CHEMBL1148659, “Discovery of potent and orally active MTP inhibitors as potential anti-obesity agents” (Bioorg Med Chem Lett, 2006).

This experiment addresses T1, Microsomal triglyceride transfer protein large subunit (Homo sapiens) (UniProt P55157).
T1 sequence (whole entry): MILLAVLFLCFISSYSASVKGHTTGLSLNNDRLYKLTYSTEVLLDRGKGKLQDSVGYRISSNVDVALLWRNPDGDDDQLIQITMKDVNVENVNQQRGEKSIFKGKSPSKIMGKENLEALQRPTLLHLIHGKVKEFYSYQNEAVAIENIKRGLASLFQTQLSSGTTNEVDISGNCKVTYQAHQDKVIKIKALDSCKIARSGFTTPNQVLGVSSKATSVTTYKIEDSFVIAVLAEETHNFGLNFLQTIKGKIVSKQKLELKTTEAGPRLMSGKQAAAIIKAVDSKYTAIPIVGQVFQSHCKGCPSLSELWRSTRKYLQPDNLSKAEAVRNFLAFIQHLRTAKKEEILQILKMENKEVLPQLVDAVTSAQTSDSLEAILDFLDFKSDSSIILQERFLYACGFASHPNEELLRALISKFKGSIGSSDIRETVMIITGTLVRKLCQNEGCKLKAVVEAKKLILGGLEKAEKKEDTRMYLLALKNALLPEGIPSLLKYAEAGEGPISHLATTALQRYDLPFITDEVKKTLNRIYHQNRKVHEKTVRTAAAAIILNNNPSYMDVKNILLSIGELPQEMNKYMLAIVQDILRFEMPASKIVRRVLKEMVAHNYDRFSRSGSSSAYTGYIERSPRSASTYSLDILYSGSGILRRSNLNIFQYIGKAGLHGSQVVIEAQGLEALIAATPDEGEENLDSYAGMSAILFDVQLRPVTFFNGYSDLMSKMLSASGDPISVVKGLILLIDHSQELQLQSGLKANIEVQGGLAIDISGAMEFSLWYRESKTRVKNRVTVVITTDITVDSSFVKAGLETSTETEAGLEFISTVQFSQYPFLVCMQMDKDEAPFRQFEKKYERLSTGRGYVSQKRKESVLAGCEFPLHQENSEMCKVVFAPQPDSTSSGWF
Kind of experiment: Inhibition of intestinal MTP in rat by murine gut retention assay. Type of experiment: functional. The conditions noted are these: target entry is the homologue from another species.

Molecules are shown by their SMILES.

As to `O=C(N[C@H](C(=O)N1CCCC1)c1ccccc1)c1ccc(NC(=O)c2ccccc2-c2ccc(C(F)(F)F)cc2)nc1`, the ED25 turned out to be 6.93 mg/kg.

On to `Cc1cc(C(=O)N[C@H](C(=O)N2CCCC2)c2ccccc2)ccc1NC(=O)c1ccccc1-c1ccc(C(F)(F)F)cc1`, for which the ED25 was 3 mg/kg.
